In article PMC11811597, “Phenomics‐Based Discovery of Novel Orthosteric Choline Kinase Inhibitors” (Angewandte Chemie (International Ed. in English), 2025):

Tested on: U2OS cells
Experiment: Cell Painting Assay (CPA)
Type: cell-based, human
Method: The described assay follows closely the method described by Bray et al.[15] Initially, 5 µL U2OS medium were added to each well of a 384-well plate (Revvity Phenoplate 384).
Subsequently, U2OS cell were seeded with a density of 1600 cells per well in 20 µL medium. The plate was incubated for 10 min at the ambient temperature, followed by an additional 4 h incubation (37 °C, 5% CO2). Compound treatment was performed with the Echo 520 acoustic dispenser (Beckman-Coulter) followed by incubation for 20 h (37 °C, 5% CO2). Subsequently, mitochondria were stained with Mito Tracker Deep Red (Thermo Fisher Scientific, Cat. No. M22426). The Mito Tracker Deep Red stock solution (1 mM) was diluted to a final concentration of 100 nM in prewarmed medium. The medium was removed from the plate leaving 10 µL residual volume and 25 µL of the Mito Tracker solution were added to each well. The plate was incubated for 30 min in darkness (37 °C, 5% CO2). To fix the cells […] of 18.5 % formaldehyde in PBS were added, resulting in a final formaldehyde concentration of […]. Subsequently, the plate was incubated for another 20 min in darkness (RT) and washed three times with 70 µL of PBS. (Agilent Washer Elx405). Cells were permeabilized by addition of 25 µL 0.1% Triton X-100 to each well, followed by 15 min incubation (RT) in darkness. The cells were washed three times with PBS leaving a final volume of 10 µL. To each well 25 µL of a staining solution were added, which contains 1% BSA, 5 µL/ml Phalloidin (Alexa594 conjugate, Thermo Fisher Scientific, A12381), 25 µg/ml Concanavalin A (Alexa488 conjugate, Thermo Fisher Scientific, Cat. No.
(Thermo Fisher Scientific, Cat. No. W11262) and 1.5 µM SYTO 14 solution (Thermo Fisher Scientific, Cat. No. S7576). The plate is incubated for 30 min (RT) in darkness and washed three times with 70 µl
PBS. After the final washing step, the PBS was not aspirated. The plates were sealed and centrifuged […]
The plates were prepared in triplicates with shifted layouts to reduce plate effects and imaged using a Micro XL High-Content Screening System (Molecular Devices) in 5 channels (DAPI: Ex350-400/ […]
The generated images were processed with the CellProfiler package (https://cellprofiler.org/, version 3.0.0) on a computing cluster of the Max Planck Society to extract 1716 cell features per microscope site. The data was then further aggregated as medians per well (9 sites -> 1 well), then over the three […]
Further analysis was performed with custom Python (https://www.python.org/) scripts using the Pandas (https://pandas.pydata.org/) and Dask (https://dask.org/) data processing libraries as well as the Scientific Python (https://scipy.org/) package (separate publication to follow).
From the total set of 1716 features, a subset of highly reproducible and robust features was determined using the procedure described by Woehrmann et al.[16] in the following way:
Two biological repeats of one plate containing reference compounds were analysed. For every feature, its full profile over each whole plate was calculated. If the profiles from the two repeats […]
set of 579 robust features out of the total of 1716 that was used for all further analyses.
The phenotypic profiles were compiled from the Z-scores of all individual cellular features, where the Z-score is a measure of how far away a data point is from a median value.
Specifically, Z-scores of test compounds were calculated relative to the Median of DMSO controls.
Thus, the Z-score of a test compound defines how many MADs (Median Absolute Deviations) the measured value is away from the Median of the controls as illustrated by the following formula:
z − score = […]
The phenotypic compound profile is then determined as the list of Z-scores of all features for one […]
(1 picture or pasted object on this page, not shown here)
In addition to the phenotypic profile, an induction value was determined for each compound as the […]
Induction [%] = number of features with abs. values > 3 […]

| Compound | biosimilarity of UNC0638 and UNC0737 profiles (clustered together) [%] | Biol.Sim. (%) (Conc 3.00 μM) | Cell Count (%) (Conc 3.00 μM) | Ind. (%) (% of parameters with significant changes) (Conc 3.00 μM) | Cell Count (%) (Conc 5.00 μM) | Ind. (%) (% of parameters with significant changes) (Conc 5.00 μM) | Biol.Sim. (%) (Conc 5.00 μM, morphological fingerprint similarity (no value printed for UNC0737 5 μM)) |
| --- | --- | --- | --- | --- | --- | --- | --- |
| COc1cc2c(NC3CCN(C(C)C)CC3)nc(C3CCCCC3)nc2cc1OCCCN1CCCC1 [UNC0638] | > 90 | 91 | 93 | 73 | 86 | 83 | 96 |
| COc1cc2c(N(C)C3CCN(C(C)C)CC3)nc(C3CCCCC3)nc2cc1OCCCN1CCCC1 [UNC0737] | > 90 | 94 | 86 | 83 | 90 | 86 | – |
